Measurements from US20240181049A1, “HARNESSING THE POWER OF MICROBIOTA AND METABOLITES FOR THE TREATMENT OF CANCER” (UTI LIMITED PARTNERSHIP, priority 2019, published 2024).

Tests used:
[1] = tested on: MC38; assay: MC38 tumors in gnotobiotic Oligo-MM12 mice, inosine + anti-CTLA-4; assay type: in vivo
Protocol: FIG. 35A-35H. Inosine and live B. pseudolongum improve anti-CTLA-4 therapy efficacy in moderately diverse and complex microbiomes. A) Schematic overview of experimental setup to assess the effect of inosine on anti-tumor immunity in gnotobiotic mice (Oligo-MM12) stably colonized with 12 bacterial species. Upon palpable tumors, Oligo-MM12 colonized mice were treated with 100 μg anti-CTLA-4 i.p. or Isotype antibody (5 times every 72 hours). In addition, inosine (300 mg/KG/BW) or PBS was given daily orally through gavage. (B) Pictures of tumors and (C) tumor weight are shown at day 20. scale bars: 1 cm. (D) Quantification of intratumoral IFN-γ+ cells amongst CD8+ or CD4+ T cells are shown. (E) Schematic overview of experimental setup to assess the effect of inosine and B. pseudolongum on anti-tumor immunity in SPF mice. Following MC38 injection some mice received antibiotics (ABX), specifically Ampicillin 1 mg/ml, Colistin 1 mg/ml and Streptomycin 5 mg/ml for 7 days in the drinking water. Upon palpable tumors, antibiotics were removed and 100 μg anti-CTLA-4 (5 times every 72 hours) started. Mice concomitantly received either PBS, inosine (300 mg/KG/BW daily), B. pseudolongum or heat inactivated (H.i.) B. pseudolongum orally through gavage (5 times every 72 hours). (F) Pictures of tumors and (G) tumor weight are shown at day 20. scale bars: 1 cm. (H) Quantification of intratumoral IFN-γ+ cells amongst CD8+ or CD4+ cells are shown. Data are mean+/−SEM and (A-H) n=7 mice/group. P<0.05; **, P<0.01, ***, P<0.001.

[2] = molecular target: A2AR (Homo sapiens, UniProt P29274); conditions: compared to adenosine; cited from earlier work
[3] = tested on: naïve OVA323-339-specific OT-II CD4^+ T cells; assay: BMDC / naive OT-II CD4+ T cell co-culture, Th1 differentiation; assay type: cell-based, mice; conditions: 2 mM inosine, 48 hours
Source text: FIG. 4A-4K: Effect of inosine on T cell differentiation and dependency on classical dendritic cells of ICB therapy efficacy. (a) Scatter plot of untargeted metabolomics data in the serum of anti-CTLA-4 treated, tumor-bearing B.p. monocolonized compared to C.sp. monocolonized and germ-free (GF) mice. Grey circles or dotted grey circles depict inosine or inosine fragments/adducts, respectively. […] (c) Naïve CD4^+ T cells were co-cultured with bone marrow derived dendritic cells and IFN-γ. Quantification of T-bet^+CD3ε^+CD4^+ T cells 48 hours after co-culture in the presence or absence of inosine, A2A receptor inhibitor (ZM241385), cell permeable cAMP (db-cAMP) and protein kinase A inhibitor (RP-8-CPT-CAMPS). (d) Same as (c) without IFN-γ. (e) Representative plot and quantification (left and right panel) of phospho-CREB (Ser133) levels in naïve CD4^+ T cells cultured with anti-CD3/anti-CD28 coated beads for 1 hour in the presence or absence of inosine. (f) Schematic overview of experimental setup to deplete classical dendritic cells during MC38 tumor challenge and anti-CTLA-4 treatment. Intratumoral (g) frequency of CD8^+ T cells (h) IFN-γ^+CD8^+ T cells. (i and j) same as (g and h), but CD4^+ T cells and (k) tumor weight at […]. Data are mean±SEM and pooled from two individual experiments (a-b) n=5-8 samples/group (c-e) 10-15 biological replicates/group (f-k) 10 mice/group. *, P<0.05; **, P<0.01; ***, P<0.001; ****, P<0.0001
Bone marrow derived dendritic cells (BMDCs) were generated from flushed bone marrow cells, maintained in RPMI-1640 (Sigma) supplemented with 10% FBS, 50 μm 2-Mercaptoethanol (Sigma) 100 units/ml penicillin, 100 μg/ml streptomycin sulfate and 20 ng/ml rm GM-CSF (R&D). Medium was exchanged after 48 hours and 72 hours. 5 days after culture, a magnetic cell sorting step was performed to enrich for CD11c^+ cells (Miltenyi Biotec). CD11c^+ cells were seeded in 96 flat bottom wells and pulsed with 20 ng/ml OVA323-339 and 100 ng/ml LPS (both Sigma) for 18 hours. In some conditions BMDCs were also cultured with 10 ng/ml rmIFN-γ (R&D).
Negative selection magnetic cell sorting (Miltenyi Biotec) was used to enrich naïve OT-II CD4^+ T cells. Naïve OT-II CD4^+ T cells were then co-cultured with BMDCs at a ratio of 2:1 or stimulated with anti-CD3/anti-CD28 T cell activation beads (Thermofisher) at a ratio of 1:1 for 48 hours prior to restimulation with PMA/lonomycin in the presence of Brefeldin-A and analysis (see Single cell preparation and flow cytometry for details). In some conditions cells were additionally cultured with various combinations of 2 μg/ml anti-CTLA-4, 100 μM db-cAMP (Sigma), 5 μM ZM 241385 (Sigma), 300 μM Rp-8-CPT-CAMPS (Cayman Chemical) or 2 mM inosine (Sigma) as described previously (He et al., 2017; Yao et al., 2013).

Chain of A2AR (P29274 whole entry): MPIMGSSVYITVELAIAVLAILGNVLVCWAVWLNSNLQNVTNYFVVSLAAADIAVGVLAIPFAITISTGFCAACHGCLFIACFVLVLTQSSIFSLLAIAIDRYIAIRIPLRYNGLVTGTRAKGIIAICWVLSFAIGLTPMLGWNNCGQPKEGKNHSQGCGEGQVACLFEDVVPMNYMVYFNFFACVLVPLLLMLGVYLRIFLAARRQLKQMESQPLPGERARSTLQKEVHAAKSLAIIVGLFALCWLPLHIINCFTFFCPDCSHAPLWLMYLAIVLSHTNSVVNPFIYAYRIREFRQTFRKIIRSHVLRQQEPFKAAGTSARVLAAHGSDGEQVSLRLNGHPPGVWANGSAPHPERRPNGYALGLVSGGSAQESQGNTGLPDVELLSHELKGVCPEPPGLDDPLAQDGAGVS

OC[C@H]1O[C@@H](n2cnc3c(O)ncnc32)[C@H](O)[C@@H]1O [inosine]
intra-tumoral IFN-γ+CD8+ and IFN-γ+CD4+ T cells [1]: increased | tumor size [1]: reduced tumor size | anti-tumor effects of anti-CTLA-4 ([1]; inosine 300 mg/KG/BW daily orally): able to promote the anti-tumor effects of anti-CTLA-4 | A2AR-dependent signaling bias, preference for ERK1/2 phosphorylation [2]: 3.3 fold | Th1 induction ([3]; in the absence of IFN-γ): reduced Th1 induction | Th1 differentiation of naïve T cells (T-bet+) ([3]; in the presence of exogenous IFN-γ): strongly boosted Th1 differentiation of naïve T cells
